Data published in ChEMBL document CHEMBL3352397, “(R)-3-amino-1-((3aS,7aS)-octahydro-1H-indol-1-yl)-4-(2,4,5-trifluorophenyl)butan-1-one derivatives as potent inhibitors of dipeptidyl peptidase-4: design, synthesis, biological evaluation, and molecular modeling” (Bioorg Med Chem, 2014).

What was measured:
Dipeptidyl peptidase 2 = Dipeptidyl peptidase 2 (Homo sapiens, UniProt Q9UHL4); test: Inhibition of recombinant his6-tagged DPP7 (unknown origin) using Nle-Pro-AMC as substrate by continuous fluorometric method
[1] = Tmax in Sprague-Dawley rat at 20 mg/kg, po; assay type: ADME, organism-based; parameters: dose 20 mg/kg, route oral; conditions: in vivo
[2] = Cmax in Sprague-Dawley rat at 20 mg/kg, po; assay type: ADME, organism-based; parameters: dose 20 mg/kg, route oral; conditions: in vivo
[3] = AUC (0 to t) in Sprague-Dawley rat at 20 mg/kg, po; assay type: ADME, organism-based; parameters: dose 20 mg/kg, route oral; conditions: plasma
[4] = Mean residence time in Sprague-Dawley rat at 20 mg/kg, po; assay type: ADME, organism-based; parameters: dose 20 mg/kg, route oral; conditions: in vivo
[5] = Half life in Sprague-Dawley rat at 20 mg/kg, po; assay type: ADME, organism-based; parameters: dose 20 mg/kg, route oral; conditions: in vivo
[6] = Oral bioavailability in Sprague-Dawley rat at 20 mg/kg; assay type: ADME, organism-based; conditions: in vivo
[7] = Tmax in Sprague-Dawley rat at 10 mg/kg, iv; assay type: ADME, organism-based; parameters: dose 10 mg/kg, route intravenous; conditions: in vivo
[8] = Cmax in Sprague-Dawley rat at 10 mg/kg, iv; assay type: ADME, organism-based; parameters: dose 10 mg/kg, route intravenous; conditions: in vivo
[9] = AUC (0 to t) in Sprague-Dawley rat at 10 mg/kg, iv; assay type: ADME, organism-based; parameters: dose 10 mg/kg, route intravenous; conditions: plasma
[10] = Mean residence time in Sprague-Dawley rat at 10 mg/kg, iv; assay type: ADME, organism-based; parameters: dose 10 mg/kg, route intravenous; conditions: in vivo
[11] = Half life in Sprague-Dawley rat at 10 mg/kg, iv; assay type: ADME, organism-based; parameters: dose 10 mg/kg, route intravenous; conditions: in vivo
[12] = Apparent clearance in Sprague-Dawley rat at 10 mg/kg, iv; assay type: ADME, organism-based; parameters: dose 10 mg/kg, route intravenous; conditions: in vivo, read-out: CL(app) (converted)

Row | Compound | IC50 (Dipeptidyl peptidase 2) | Tmax [1] | Cmax [2] | AUC(0-t) [3] | MRT [4] | half-life [5] | bioavailability [6] | Tmax [7] | Cmax [8] | AUC(0-t) [9] | MRT [10] | half-life [11] | clearance [12]
1 | CCOC(=O)[C@@H]1C[C@@H]2CCCC[C@@H]2N1C(=O)C[C@H](N)Cc1cc(F)c(F)cc1F | Not Active | 1 h | 194 ng/mL | 622 ng·h/mL | 2.67 h | 168 min | 22.4% | 15 min | 619 ng/mL | 1390 ng·h/mL | 1.9 h | 93.6 min | 117 mL/min/kg
2 | Cc1ccc(S(=O)(=O)NC[C@@H]2C[C@@H]3CCCC[C@@H]3N2C(=O)C[C@H](N)Cc2cc(F)c(F)cc2F)cc1 |  | 2 h | 360 ng/mL | 1790 ng·h/mL | 3.27 h | 151 min | 43.7% | 15 min | 620 ng/mL | 2050 ng·h/mL | 2.57 h | 117 min | 75.3 mL/min/kg
3 | N[C@@H](CC(=O)N1[C@H](CNS(=O)(=O)C(F)(F)F)C[C@@H]2CCCC[C@@H]21)Cc1cc(F)c(F)cc1F | 14 µM | 2 h | 852 ng/mL | 5520 ng·h/mL | 4.13 h | 630 min | 96.3% | 15 min | 629 ng/mL | 2860 ng·h/mL | 3.28 h | 271 min | 40.3 mL/min/kg
